Source: patent US20070054266A1, “Chemical sensor system” (NATIONAL INSTITUTE of ADVANCED INDUSTRIAL SCIENCE and …, priority 2002, published 2007)

Legend:
olfactory cells = assay: Responsiveness of 2,740 isolated olfactory cells to odor molecules (fura-2 calcium fluorescence); assay type: cell-based, mouse; details: for number of olfactory cells responding, with higher sensitivity than others and to the same extent, to both pulegone and (−)menthone / number of olfactory cells responding, with the highest sensitivity and to the same extent, to both R(−)carvone and S(+)carvone / number of olfactory cells sensitively and selectively responding: of 2,740 olfactory cells investigated
Description: (§1) It is reported that, in mice, the olfactory receptor is expressed is olfactory cells and detects and identifies odor molecules (Cell 96: 713-723 (1999) and the like). It is reported that there are four zones indicated by No. 1 to 4 in order from the dorsum to the ventral olfactory epithelium wherein olfactory cells are distributed and each olfactory receptor is limitedly expressed in any one of the four zones (Science 286 (5440): 706-711 (1999) and the like). As it is estimated by gene analysis estimates that there are about 1,000 types of olfactory receptors, the responsiveness to specific odor molecules of the olfactory cells sampled in statistically significant number from the four zones is equivalent. Therefore, in the present invention, the responsiveness of 2,740 olfactory cells, about 2.7 times as many as 1,000 specific types of cells, was investigated. It cannot be declared that the statistical significance is maintained for all zones, as the number of types of olfactory receptor included in each zone is not clear. […] As a result, 4 olfactory cells sensitively and selectively responding to R(−)carvone of spearmint odor of a typical olfactory source, 18 olfactory cells sensitively and selectively responding to S(+)carvone of caraway odor of another typical olfactory source, 3 olfactory cells responding, with higher sensitivity than others and to the same extent, to both pulegone and (−)menthone commonly having mint odor of another typical olfactory source, and 3 olfactory cells responding, with the highest sensitivity and to the same extent, to both R(−)carvone and S(+)carvone commonly having sweet odor of another typical olfactory source were found. Respectively, 2, 2, 1 and 1 type(s) of genes identified by RT-PCR determined from a single cell among such olfactory cells were found and described in the present invention.
The olfactory epithelium was quickly excised from a mouse euthanized by decapitation under anesthesia and divided into small pieces. These pieces were trypsinized to cleave intercellular junctions, and a sample of viable multiple mouse olfactory cells isolated from cells adhered to a cover slip by softly putting the treated pieces onto the cover slip taking care not to rupture them. Calcium-sensitive fluorescent dye fura-2 was intracellularly loaded on the sample, a solution of each odor molecule was administered, and the transient increase in intracellular calcium concentration triggered by the olfactory cells responding was detected by measuring and analysing the change in fura-2 fluorescence intensity within the cell using a microscope (Nikon), high-sensitive SIT video camera and image analysis device Argus-50 (Hamamatsu Photonics for both of the latter two), allowing the analysis individual cells response to specific odor molecules. Olfactory cell with a confirmed response were individually sampled with a micropipette containing 4 μl of cell lysis mix (1×MMLV buffer (GIBCO BRL), 0.5% NP-40, 290 U/ml RNA guard (Pharmacia), 300 U/ml Prime RNase inhibitor (Eppendorf), 10 μM each dNTP, 200 ng/ml pd(T)25-30) under microscopy and moved into a tube for PCR. After the tube was incubated at 65° C. for 1 minute, 0.5 μl of RT mixed solution containing 50 U of MMLV reverse transcriptase (GIBCO BRL) and 0.5 U of AMV reverse transcriptase (GIBCO BRL) was added to each tube, followed by reverse-transcription at 37° C. for 30 minutes and treatment at 65° C. for 10 minutes prior to the termination of reaction. To form polyA tails, 5 μl of 2×TdT buffer (GIBCO BRL), 1.5 mM DATP, and 3 U/μl Terminal deoxynucleotidyl transferase (GIBCO BRL) were added, followed by incubation at 37° C. for 15 minutes and treatment at 65° C. for 10 minutes prior to the termination of reaction. […]

[1] = test system: olfactory receptor car-b85; assay: Odor response of olfactory cell expressing olfactory receptor car-b85 (fura-2 calcium fluorescence); assay type: cell-based, mouse; details: car-b85, odor quality Mint; for Response at 10 μM: responders at 10 μM; for Response at 1 μM: responders at 1 μM with rank order
Description: It is reported that, in mice, the olfactory receptor is expressed is olfactory cells and detects and identifies odor molecules (Cell 96: 713-723 (1999) and the like). It is reported that there are four zones indicated by No. 1 to 4 in order from the dorsum to the ventral olfactory epithelium wherein olfactory cells are distributed and each olfactory receptor is limitedly expressed in any one of the four zones (Science 286 (5440): 706-711 (1999) and the like). As it is estimated by gene analysis estimates that there are about 1,000 types of olfactory receptors, the responsiveness to specific odor molecules of the olfactory cells sampled in statistically significant number from the four zones is equivalent. Therefore, in the present invention, the responsiveness of 2,740 olfactory cells, about 2.7 times as many as 1,000 specific types of cells, was investigated. It cannot be declared that the statistical significance is maintained for all zones, as the number of types of olfactory receptor included in each zone is not clear. […] Respectively, 2, 2, 1 and 1 type(s) of genes identified by RT-PCR determined from a single cell among such olfactory cells were found and described in the present invention. The olfactory epithelium was quickly excised from a mouse euthanized by decapitation under anesthesia and divided into small pieces. These pieces were trypsinized to cleave intercellular junctions, and a sample of viable multiple mouse olfactory cells isolated from cells adhered to a cover slip by softly putting the treated pieces onto the cover slip taking care not to rupture them. Calcium-sensitive fluorescent dye fura-2 was intracellularly loaded on the sample, a solution of each odor molecule was administered, and the transient increase in intracellular calcium concentration triggered by the olfactory cells responding was detected by measuring and analysing the change in fura-2 fluorescence intensity within the cell using a microscope (Nikon), high-sensitive SIT video camera and image analysis device Argus-50 (Hamamatsu Photonics for both of the latter two), allowing the analysis individual cells response to specific odor molecules. […] The olfactory receptors with high sensitivity to specific odor qualities are shown as follows.

[2] = test system: olfactory receptor car-n272; assay: Odor response of olfactory cell expressing olfactory receptor car-n272 (fura-2 calcium fluorescence); assay type: cell-based, mouse; details: car-n272, odor quality Spearmint; for Response at 10 μM: odor molecules listed are those giving a response at 10 μM
Description: (§2) It is reported that, in mice, the olfactory receptor is expressed is olfactory cells and detects and identifies odor molecules (Cell 96: 713-723 (1999) and the like). It is reported that there are four zones indicated by No. 1 to 4 in order from the dorsum to the ventral olfactory epithelium wherein olfactory cells are distributed and each olfactory receptor is limitedly expressed in any one of the four zones (Science 286 (5440): 706-711 (1999) and the like). As it is estimated by gene analysis estimates that there are about 1,000 types of olfactory receptors, the responsiveness to specific odor molecules of the olfactory cells sampled in statistically significant number from the four zones is equivalent. Therefore, in the present invention, the responsiveness of 2,740 olfactory cells, about 2.7 times as many as 1,000 specific types of cells, was investigated. It cannot be declared that the statistical significance is maintained for all zones, as the number of types of olfactory receptor included in each zone is not clear. […] Respectively, 2, 2, 1 and 1 type(s) of genes identified by RT-PCR determined from a single cell among such olfactory cells were found and described in the present invention.
(§3) The olfactory epithelium was quickly excised from a mouse euthanized by decapitation under anesthesia and divided into small pieces. […] Calcium-sensitive fluorescent dye fura-2 was intracellularly loaded on the sample, a solution of each odor molecule was administered, and the transient increase in intracellular calcium concentration triggered by the olfactory cells responding was detected by measuring and analysing the change in fura-2 fluorescence intensity within the cell using a microscope (Nikon), high-sensitive SIT video camera and image analysis device Argus-50 (Hamamatsu Photonics for both of the latter two), allowing the analysis individual cells response to specific odor molecules. […]

[3] = test system: olfactory receptor car-c5; assay: Odor response of olfactory cell expressing olfactory receptor car-c5 (fura-2 calcium fluorescence); assay type: cell-based, mouse; details: car-c5, odor quality Spearmint; for Response at 10 μM: responders at 10 μM
Description: as §2, §3

[4] = test system: olfactory receptor car-n266; assay: Odor response of olfactory cell expressing olfactory receptor car-n266 (fura-2 calcium fluorescence); assay type: cell-based, mouse; details: car-n266, Sweet odor; for Response at 1 μM: responders at 1 μM; for Response at 10 μM: responders at 10 μM
Description: as §1, §3

olfactory receptor C257 = assay: Response characteristics of olfactory receptor C257 expressed in cultured cell CHO; assay type: cell-based; details: sensitivity one order of magnitude lower than in olfactory receptor cell (FIG. 16)
Description: Next, in this Example, response characteristics of olfactory receptor C257 were studied. A) is the case wherein it is expressed in olfactory receptor cell, and B) is the case wherein it is expressed in cell established and cultured cell CHO. […] However, response to sCa was not apparent (FIG. 16). […] Regarding discrimination, characteristics of the olfactory receptor can be considered to be expressed, independent of the cell type. However, regarding sensitivity and response starting time, they are change with regards to all odor molecules depending on the cell type. Therefore, it is necessary to evaluate the stimulation quality, paying attention to this point.

[5] = test system: olfactory receptor car-b161; assay: Odor response of olfactory cell expressing olfactory receptor car-b161 (fura-2 calcium fluorescence); assay type: cell-based, mouse; details: car-b161, odor quality Caraway; responders at 10 μM
Description: (§4) It is reported that, in mice, the olfactory receptor is expressed is olfactory cells and detects and identifies odor molecules (Cell 96: 713-723 (1999) and the like). It is reported that there are four zones indicated by No. 1 to 4 in order from the dorsum to the ventral olfactory epithelium wherein olfactory cells are distributed and each olfactory receptor is limitedly expressed in any one of the four zones (Science 286 (5440): 706-711 (1999) and the like). […] Respectively, 2, 2, 1 and 1 type(s) of genes identified by RT-PCR determined from a single cell among such olfactory cells were found and described in the present invention.
as §3

[6] = test system: olfactory receptor car-b153; assay: Odor response of olfactory cell expressing olfactory receptor car-b153 (fura-2 calcium fluorescence); assay type: cell-based, mouse; details: car-b153, odor quality Caraway; responders at 10 μM
Description: as §4, §3

[7] = of about 70-100 kinds of receptors
[8] = 1 μM, cells selective for the respective carvone (FIG. 8)

SMILES | Response at 10 μM [1] | Response at 1 μM [1] | number of olfactory cells responding, with higher sensitivity than others and to the same extent, to both pulegone and (−)menthone (olfactory cells) | Response at 10 μM [2] | Response at 10 μM [3] | Response at 1 μM [4] | Response at 10 μM [4] | number of selective cells responding at 1 μM (olfactory cells; [8]) | number of olfactory cells responding, with the highest sensitivity and to the same extent, to both R(−)carvone and S(+)carvone (olfactory cells) | number of olfactory cells sensitively and selectively responding (olfactory cells) | fraction of the carvone-identifying olfactory receptors responding with relatively high sensitivity (olfactory cells; [7]) | response of olfactory receptor C257 when expressed in CHO (olfactory receptor C257) | also measured
C=C(C)C1CC=C(C)C(=O)C1 (stereo not drawn) [carvone] | – | – | – | – | – | – | – | – | – | – | – | – | number of cells responding equally to both carvones at 1 μM (olfactory cells; 1 μM): three; kinds of olfactory receptors functioning to identify carvone (olfactory cells; corresponding to about 9.6% of about 1,000 kinds): 70-100 kinds; olfactory cells responding to carvone, share of the total (olfactory cells; of 2,740 olfactory cells): 9.6%; number of olfactory cells responding to carvone (olfactory cells; of 2,740 olfactory cells, carvone = both S(+)carvone and R(−)carvone): 263; fraction of the carvone-identifying olfactory receptors responding to both carvones equally with relatively high sensitivity (olfactory cells; [7]): about ⅖
C=C(C)C1CCC(C)CC1O (stereo not drawn) [ip, 2-isopropenyl-5-methylcyclohexanol] | ip | – | – | – | – | – | – | – | – | – | – | – | –
CC(C)[C@@H]1CC[C@@H](C)CC1=O [mn, (2S,5R)-2-isopropyl-5-methylcyclohexanone] | mn | pu, mn > sCa, rCa | 3 olfactory cells | – | – | – | – | – | – | – | – | – | –
CC(C)=C1CC[C@@H](C)CC1=O [pu, (R)-p-menth-4(8)-en-3-one] | pu | pu, mn > sCa, rCa | 3 olfactory cells | – | – | – | – | – | – | – | – | – | –
C=C(C)[C@@H]1CC=C(C)C(=O)C1 [rCa, R(−)-5-isopropenyl-2-methyl-2-cyclohexenon] | rCa | pu, mn > sCa, rCa | – | rCa | rCa | rCa | rCa | four | 3 olfactory cells | 4 olfactory cells | about ⅕ | high sensitivity could be confirmed | Response at 1 μM ([2]; odor molecules listed are those giving a response at 1 μM): rCa; Response at 1 μM ([3]; responders at 1 μM): rCa
C=C(C)[C@H]1CC=C(C)C(=O)C1 [sCa, S(+)-5-isopropenyl-2-methyl-2-cyclohexenon] | sCa | pu, mn > sCa, rCa | – | sCa | sCa | sCa | sCa | two | 3 olfactory cells | 18 olfactory cells | about ⅕ | not apparent | Response at 10 μM [5]: sCa; Response at 10 μM [6]: sCa; number of selective cells responding at 10 μM (olfactory cells; 10 μM, cells selective for the respective carvone (FIG. 8)): seventeen
